Results reported in patent US10040781B2, “Tank-binding kinase inhibitor compounds” (Gilead Sciences, Inc., priority 2014, dated 2018).

Key:
[1] = molecular target: IKKε (Homo sapiens (Human), UniProt Q14164); experiment: IKKε TR-FRET enzymatic assay; format: biochemical; conditions: read-out: IKKe IC50
[2] = molecular target: hJAK2 (Homo sapiens (Human), UniProt O60674); experiment: hJAK2 LANCE TR-FRET enzymatic assay; format: biochemical; conditions: read-out: JAK2 IC50
[3] = molecular target: TBK1 (Homo sapiens (Human), UniProt Q9UHD2); experiment: TBK1 TR-FRET enzymatic assay;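 note: phosphorylation of a biotinylated Ser/Thr peptide by purified full-length recombinant TBK1, read by TR-FRET after 240 min at 25 °C, IC50 is the geometric mean of at least four runs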
Chain of TBK1 (Q9UHD2 whole entry): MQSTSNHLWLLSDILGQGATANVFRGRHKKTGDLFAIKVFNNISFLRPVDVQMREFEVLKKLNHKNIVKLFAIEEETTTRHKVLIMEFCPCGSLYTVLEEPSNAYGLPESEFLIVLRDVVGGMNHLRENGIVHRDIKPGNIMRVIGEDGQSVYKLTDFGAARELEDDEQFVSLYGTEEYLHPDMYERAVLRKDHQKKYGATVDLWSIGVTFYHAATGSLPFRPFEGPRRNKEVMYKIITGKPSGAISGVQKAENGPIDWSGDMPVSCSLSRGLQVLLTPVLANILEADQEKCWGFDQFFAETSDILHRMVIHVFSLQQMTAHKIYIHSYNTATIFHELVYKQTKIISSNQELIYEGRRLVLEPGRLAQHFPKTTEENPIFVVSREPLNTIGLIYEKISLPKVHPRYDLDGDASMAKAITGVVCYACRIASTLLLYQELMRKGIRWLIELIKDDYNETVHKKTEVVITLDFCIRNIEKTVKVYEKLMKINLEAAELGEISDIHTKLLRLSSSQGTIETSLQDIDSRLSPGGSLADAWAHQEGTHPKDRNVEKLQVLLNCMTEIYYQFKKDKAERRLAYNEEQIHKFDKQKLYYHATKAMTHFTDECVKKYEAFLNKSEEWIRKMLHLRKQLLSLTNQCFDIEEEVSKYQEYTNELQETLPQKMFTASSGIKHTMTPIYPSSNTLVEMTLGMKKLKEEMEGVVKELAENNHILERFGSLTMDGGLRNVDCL
Experimental: Enzymatic activity of IKKε and TBK1 was measured using a homogeneous time resolved fluorescence resonance energy transfer (TR-FRET) assay that monitors enzyme dependent phosphorylation of a biotinylated serine/threonine peptide substrate. […] TBK1 and IKKε were expressed and purified as full length recombinant proteins. Detection reagents for the assay were purchased from Cisbio. […] After an assay reaction time of 240 minutes at 25° C., reactions were terminated with EDTA.
All IC50 values represent geometric mean values of a minimum of four determinations.

Chain of hJAK2 (O60674 whole entry): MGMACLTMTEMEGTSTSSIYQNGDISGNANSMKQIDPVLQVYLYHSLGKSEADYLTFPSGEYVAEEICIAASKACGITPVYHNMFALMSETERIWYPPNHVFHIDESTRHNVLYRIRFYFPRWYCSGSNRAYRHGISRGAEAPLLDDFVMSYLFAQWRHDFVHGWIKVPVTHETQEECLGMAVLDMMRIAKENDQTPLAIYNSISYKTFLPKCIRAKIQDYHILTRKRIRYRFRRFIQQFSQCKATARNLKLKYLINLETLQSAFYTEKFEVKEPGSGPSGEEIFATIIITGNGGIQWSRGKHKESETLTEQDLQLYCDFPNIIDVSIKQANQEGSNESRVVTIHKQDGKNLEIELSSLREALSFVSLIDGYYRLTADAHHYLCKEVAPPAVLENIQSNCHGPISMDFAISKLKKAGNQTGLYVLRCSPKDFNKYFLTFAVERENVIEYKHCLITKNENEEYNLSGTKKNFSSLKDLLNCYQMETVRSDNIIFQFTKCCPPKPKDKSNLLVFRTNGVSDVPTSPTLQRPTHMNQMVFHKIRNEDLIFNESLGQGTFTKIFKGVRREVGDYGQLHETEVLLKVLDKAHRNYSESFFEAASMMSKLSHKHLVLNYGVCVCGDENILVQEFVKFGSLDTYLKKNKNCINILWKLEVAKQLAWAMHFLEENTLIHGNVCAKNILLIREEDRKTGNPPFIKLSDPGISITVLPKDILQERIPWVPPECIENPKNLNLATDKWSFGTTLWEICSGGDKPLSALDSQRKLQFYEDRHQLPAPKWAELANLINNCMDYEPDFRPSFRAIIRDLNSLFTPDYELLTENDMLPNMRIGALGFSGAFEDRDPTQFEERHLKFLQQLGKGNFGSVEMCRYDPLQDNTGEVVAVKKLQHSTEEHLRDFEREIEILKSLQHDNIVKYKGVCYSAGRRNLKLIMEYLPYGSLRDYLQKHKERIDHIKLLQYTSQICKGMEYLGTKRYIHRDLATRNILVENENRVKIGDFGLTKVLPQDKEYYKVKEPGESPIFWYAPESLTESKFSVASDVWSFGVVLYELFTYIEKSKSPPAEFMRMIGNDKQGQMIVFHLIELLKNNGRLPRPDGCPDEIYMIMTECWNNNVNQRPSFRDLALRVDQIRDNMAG
Chain of IKKε (Q14164 whole entry): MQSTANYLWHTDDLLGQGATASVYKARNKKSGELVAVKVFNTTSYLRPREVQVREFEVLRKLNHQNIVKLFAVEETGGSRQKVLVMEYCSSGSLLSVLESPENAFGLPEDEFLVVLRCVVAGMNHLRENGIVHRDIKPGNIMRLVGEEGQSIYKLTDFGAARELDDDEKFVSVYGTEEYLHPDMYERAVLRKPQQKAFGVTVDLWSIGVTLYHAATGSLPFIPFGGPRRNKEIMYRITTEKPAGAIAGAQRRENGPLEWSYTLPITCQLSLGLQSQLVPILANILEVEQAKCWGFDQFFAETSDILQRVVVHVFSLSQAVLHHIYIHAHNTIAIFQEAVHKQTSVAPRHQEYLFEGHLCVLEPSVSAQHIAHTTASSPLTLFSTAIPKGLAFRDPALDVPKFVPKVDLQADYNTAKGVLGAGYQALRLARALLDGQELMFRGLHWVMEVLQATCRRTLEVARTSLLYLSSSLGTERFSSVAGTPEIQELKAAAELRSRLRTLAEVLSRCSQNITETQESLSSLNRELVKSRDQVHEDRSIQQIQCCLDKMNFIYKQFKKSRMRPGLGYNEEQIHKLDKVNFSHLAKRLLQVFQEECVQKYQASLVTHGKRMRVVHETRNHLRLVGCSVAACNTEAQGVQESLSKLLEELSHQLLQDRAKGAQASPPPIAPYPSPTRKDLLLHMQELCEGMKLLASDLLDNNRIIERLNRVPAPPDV

Compound	IC50 [1] [nM]	IC50 [2] [nM]	IC50 [3] [nM]
N#Cc1cc(-c2ncnc(Nc3ccc(N4CCN(C5COC5)CC4)cc3)n2)ccc1N1CC[C@@H](F)C1 [Example 200, (R)-2-(3-fluoropyrrolidin-1-yl)-5-(4-((4-(4-(oxetan-3-yl)piperazin-1-yl)phenyl)amino)-1,3,5-triazin-2-yl)benzonitrile]	7	109	3
N#Cc1cc(-c2ncnc(Nc3ccc(N4CCN(C5COC5)CC4)cc3)n2)ccc1N1CC[C@H](F)C1 [Example 201, (S)-2-(3-fluoropyrrolidin-1-yl)-5-(4-((4-(4-(oxetan-3-yl)piperazin-1-yl)phenyl)amino)-1,3,5-triazin-2-yl)benzonitrile]	5	69	1
N#Cc1cc(-c2ncnc(Nc3ccc(N4CCN(C5COC5)CC4)cc3)n2)ccc1N1CC[C@@H](O)C1 [Example 202, (R)-2-(3-hydroxypyrrolidin-1-yl)-5-(4-((4-(4-(oxetan-3-yl)piperazin-1-yl)phenyl)amino)-1,3,5-triazin-2-yl)benzonitrile]	13	192	3
N#Cc1cc(-c2ncnc(Nc3ccc(N4CCN(C5COC5)CC4)cc3)n2)ccc1N1CC[C@H](O)C1 [Example 203, (S)-2-(3-hydroxypyrrolidin-1-yl)-5-(4-((4-(4-(oxetan-3-yl)piperazin-1-yl)phenyl)amino)-1,3,5-triazin-2-yl)benzonitrile]	27	315	7
C[C@@H]1C[C@@H](O)CN1c1ccc(-c2ncnc(Nc3ccc(N4CCN(C5COC5)CC4)cc3)n2)cc1C#N [Example 204, 2-((2R,4R)-4-hydroxy-2-methylpyrrolidin-1-yl)-5-(4-((4-(4-(oxetan-3-yl)piperazin-1-yl)phenyl)amino)-1,3,5-triazin-2-yl)benzonitrile]	18	47	1
C[C@H]1C[C@@H](O)CN1c1ccc(-c2ncnc(Nc3ccc(N4CCN(C5COC5)CC4)cc3)n2)cc1C#N [Example 205, 2-((2S,4R)-4-hydroxy-2-methylpyrrolidin-1-yl)-5-(4-((4-(4-(oxetan-3-yl)piperazin-1-yl)phenyl)amino)-1,3,5-triazin-2-yl)benzonitrile]	17	51	1
N#Cc1cc(-c2ncnc(Nc3ccc(N4CCN(C5COC5)CC4)cc3)n2)ccc1N1CCC2(COC2)C1 [Example 206, 5-(4-((4-(4-(oxetan-3-yl)piperazin-1-yl)phenyl)amino)-1,3,5-triazin-2-yl)-2-(2-oxa-6-azaspiro[3.4]octan-6-yl)benzonitrile]	20	236	12
N#Cc1cc(-c2ncnc(Nc3ccc(N4CCN(C5COC5)CC4)cc3)n2)ccc1N1CCC2(CCO2)C1 (stereo not drawn) [Example 207, 5-(4-((4-(4-(oxetan-3-yl)piperazin-1-yl)phenyl)amino)-1,3,5-triazin-2-yl)-2-(1-oxa-6-azaspiro[3.4]octan-6-yl)benzonitrile]	128	258	38
N#Cc1cc(-c2ncnc(Nc3ccc(N4CCN(C5COC5)CC4)cc3)n2)ccc1N1CCC2(C1)OCCO2 [Example 208, 5-(4-((4-(4-(oxetan-3-yl)piperazin-1-yl)phenyl)amino)-1,3,5-triazin-2-yl)-2-(1,4-dioxa-7-azaspiro[4.4]nonan-7-yl)benzonitrile]	283	330	64
N#Cc1cc(-c2ncnc(Nc3ccc(N4CCN(C5COC5)CC4)cc3)n2)ccc1N1CC2(CCO2)C1 [Example 210, 5-(4-((4-(4-(oxetan-3-yl)piperazin-1-yl)phenyl)amino)-1,3,5-triazin-2-yl)-2-(1-oxa-6-azaspiro[3.3]heptan-6-yl)benzonitrile]	71	354	26
N#Cc1cc(-c2ncnc(Nc3ccc(N4CCN(C5COC5)CC4)cc3)n2)ccc1N1CC2(CCOCC2)C1 [Example 211, 5-(4-((4-(4-(oxetan-3-yl)piperazin-1-yl)phenyl)amino)-1,3,5-triazin-2-yl)-2-(7-oxa-2-azaspiro[3.5]nonan-2-yl)benzonitrile]	22	170	6
N#Cc1cc(-c2ncnc(Nc3ccc(N4CCN(C5COC5)CC4)cc3)n2)ccc1N1CCC2(CCOCC2)C1 [Example 212, 5-(4-((4-(4-(oxetan-3-yl)piperazin-1-yl)phenyl)amino)-1,3,5-triazin-2-yl)-2-(8-oxa-2-azaspiro[4.5]decan-2-yl)benzonitrile]	63	137	29
N#Cc1cc(-c2ncnc(Nc3ccc(N4CCN(C5COC5)CC4)cc3)n2)ccc1N1CCC2(CCOC2)CC1 [Example 213, 5-(4-((4-(4-(oxetan-3-yl)piperazin-1-yl)phenyl)amino)-1,3,5-triazin-2-yl)-2-(2-oxa-8-azaspiro[4.5]decan-8-yl)benzonitrile]	14	≥ 1000	3
N#Cc1cc(-c2ncnc(Nc3ccc(N4CCN(C5COC5)CC4)cc3)n2)ccc1N1CCC2(CCO2)CC1 [Example 214, 5-(4-((4-(4-(oxetan-3-yl)piperazin-1-yl)phenyl)amino)-1,3,5-triazin-2-yl)-2-(1-oxa-7-azaspiro[3.5]nonan-7-yl)benzonitrile]	43	301	12
N#Cc1cccc(-c2ncnc(Nc3ccc(N4CCN(C5COC5)CC4)cc3)n2)c1 [Example 215, 3-(4-((4-(4-(oxetan-3-yl)piperazin-1-yl)phenyl)amino)-1,3,5-triazin-2-yl)benzonitrile]	≥ 1000	657	1000
N#Cc1cc(-c2ncnc(Nc3ccc(N4CCN(C5COC5)CC4)cc3)n2)ccc1OC1CCCCC1 [Example 217, 2-(cyclohexyloxy)-5-(4-((4-(4-(oxetan-3-yl)piperazin-1-yl)phenyl)amino)-1,3,5-triazin-2-yl)benzonitrile]	14	980	4
C[C@@H](O)C(=O)N1CCC(Oc2ccc(-c3ncnc(Nc4ccc(N5CCN(C6COC6)CC5)cc4)n3)cc2C#N)CC1 [Example 219, (R)-2-((1-(2-hydroxypropanoyl)piperidin-4-yl)oxy)-5-(4-((4-(4-(oxetan-3-yl)piperazin-1-yl)phenyl)amino)-1,3,5-triazin-2-yl)benzonitrile]	126	626	44
C[C@H]1C[C@H](Oc2ccc(-c3ncnc(Nc4ccc(N5CCN(C6COC6)CC5)cc4)n3)cc2C#N)CCN1C(=O)CO [Example 221, 2-(((2S,4R)-1-(2-hydroxyacetyl)-2-methylpiperidin-4-yl)oxy)-5-(4-((4-(4-(oxetan-3-yl)piperazin-1-yl)phenyl)amino)-1,3,5-triazin-2-yl)benzonitrile]	68	488	18
C[C@@H]1C[C@H](Oc2ccc(-c3ncnc(Nc4ccc(N5CCN(C6COC6)CC5)cc4)n3)cc2C#N)CCN1C(=O)CO [Example 222, 2-(((2R,4R)-1-(2-hydroxyacetyl)-2-methylpiperidin-4-yl)oxy)-5-(4-((4-(4-(oxetan-3-yl)piperazin-1-yl)phenyl)amino)-1,3,5-triazin-2-yl)benzonitrile]	60	182	21
C[C@H](O)C(=O)N1CCC(Oc2ccc(-c3ncnc(Nc4ccc(N5CCO[C@@H](CO)C5)cc4)n3)cc2C#N)CC1 [Example 225, 5-(4-((4-((R)-2-(hydroxymethyl)morpholino)phenyl)amino)-1,3,5-triazin-2-yl)-2-((1-((S)-2-hydroxypropanoyl)piperidin-4-yl)oxy)benzonitrile]	22	≥ 1000	8
N#Cc1cc(-c2ncnc(Nc3ccc(N4CCO[C@@H](CO)C4)cc3)n2)ccc1OC1CCNCC1(F)F (stereo partly drawn) [Example 226, 2-((3,3-difluoropiperidin-4-yl)oxy)-5-(4-((4-((R)-2-(hydroxymethyl)morpholino)phenyl)amino)-1,3,5-triazin-2-yl)benzonitrile]	29	311	5
N#Cc1cc(-c2ncnc(Nc3ccc(N4CCO[C@@H](CO)C4)cc3)n2)ccc1OC1CCN(C(=O)CO)CC1 [Example 227, (R)-2-((1-(2-hydroxyacetyl)piperidin-4-yl)oxy)-5-(4-((4-(2-(hydroxymethyl)morpholino)phenyl)amino)-1,3,5-triazin-2-yl)benzonitrile]	4	333	2
C[C@H](O)C(=O)N1CCC(Oc2ccc(-c3ncnc(Nc4ccc(N5CCO[C@@H](CO)C5)cc4)n3)cc2C#N)C(F)(F)C1 (stereo partly drawn) [Example 228, 2-((3,3-difluoro-1-((S)-2-hydroxypropanoyl)piperidin-4-yl)oxy)-5-(4-((4-((R)-2-(hydroxymethyl)morpholino)phenyl)amino)-1,3,5-triazin-2-yl)benzonitrile]	2	206	1
CC(=O)N1CC[C@H](Oc2ccc(-c3ncnc(Nc4ccc(N5CCO[C@@H](CO)C5)cc4)n3)cc2C#N)C(F)(F)C1 [Example 230, 2-(((5)-1-acetyl-3,3-difluoropiperidin-4-yl)oxy)-5-(4-((4-((R)-2-(hydroxymethyl)morpholino)phenyl)amino)-1,3,5-triazin-2-yl)benzonitrile]	2	233	4
C[C@H](O)C(=O)N1CC[C@H](Oc2ccc(-c3ncnc(Nc4ccc(N5CCO[C@@H](CO)C5)cc4)n3)cc2C#N)[C@H](F)C1 [Example 231, 2-(((3R,4S)-3-fluoro-1-((S)-2-hydroxypropanoyl)piperidin-4-yl)oxy)-5-(4-((4-((R)-2-(hydroxymethyl)morpholino)phenyl)amino)-1,3,5-triazin-2-yl)benzonitrile]	1	486	3
